From a melting point compilation (Tetko et al.; mined from patent text by program, amines drawn as free bases though some values may be those of a salt)

Work on `c1ccc(-c2[nH]c3ccccc3c2C2CCNCC2)cc1` yielded a melting point of 187 to 188 °C.
With `CC1COc2c(N3CCC(n4ccnn4)C3)c(F)cc3c(=O)c(C(=O)O)cn1c23` (single isomer, unassigned; (-)) the melting point was 225 to 229 °C.
`CC[C@@]1(CC(=O)NCc2ccccc2)CCCN2CCc3c([nH]c4ccccc34)[C@@H]21` showed a melting point of 179 to 180 °C.
`Cc1cc2cn[nH]c2c(C(=O)NC(C)C)c1NC(=O)c1cc(OCC(F)(F)F)nn1-c1ncccc1Cl` showed a melting point of 247 to 250 °C.
Work on `CNC1=NN(C(=O)c2ccccc2C(F)(F)F)C(C)(C)S1` yielded a melting point of 164 to 169 °C.
`CC(=O)OC1(c2nc3ccccc3s2)C=CC(=O)C=C1` showed a melting point of 101 °C.
Work on `CN1CC=C(c2cnn3c(-c4cccc(NC(=O)c5cccc(C(F)(F)F)c5)c4)ccnc23)CC1` yielded a melting point of 163 to 165 °C.
For `CSc1nc(NCCC(C)C)c2[nH]nc(C)c2n1`, the melting point was 90 to 95 °C.
`CN1CC(c2ccc(S(C)(=O)=O)cc2)=C(c2ccc(Cl)cc2)C1=O` showed a melting point of 129 to 131 °C.
For `Cc1ccc2c(Cl)nccc2c1[N+](=O)[O-]`, the melting point was 171 to 173 °C.
For `CSC1Oc2ccc(Cl)cc2C1=O` (stereo not given), the melting point was 76 to 78 °C.
Work on `CCn1nc(-c2ccccc2)c(C(C)=O)c(Nc2cccc3nnc(C)cc23)c1=O` yielded a melting point of 235 to 238 °C.
`CCC1SCCCN1C(=S)Nc1cccc(Cl)c1` (stereo not given) showed a melting point of 69 to 73 °C.
With `CC(=O)N(C)c1cccc(S(=O)(=O)c2ccc([N+](=O)[O-])cc2)c1` the melting point was 194 to 195 °C.
Molecule `CS(=O)(=O)c1ccc(-c2ccc(S(=O)(=O)CC(CO)N(O)C=O)cc2)cc1` (stereo not given) has a melting point of 165 to 167 °C.
`Cc1c(C(F)(F)F)[nH]c(=O)n(-c2ccc(Br)cc2F)c1=O` gave a melting point of 188 to 189 °C.
Work on `CC(C)CC(=O)Nc1cccc(-c2ccnc3c(-c4cccc(N)c4)cnn23)c1` yielded a melting point of 173 to 175 °C.
In the case of `CCOC(=O)C(CC)(CC)CCCS(N)(=O)=O`, the melting point is reported as 66 to 67 °C.
`O=c1ccc(-c2c(-c3ccccc3)nn3ccccc23)c[nH]1` gave a melting point of 222 to 224 °C.
In the case of `O=c1c2cc(Cl)ccc2nc2n1CCN2Cc1ccccc1Cl`, the melting point is reported as 173 to 174 °C.
With `CN(c1ccc(Cl)cc1[N+](=O)[O-])S(=O)(=O)c1ccc(Cl)s1` the melting point was 85 to 86 °C.
`COc1ccc(CCN2C=CC=C3C2=Nc2ccccc2OS3(=O)=O)cc1O` showed a melting point of 158 to 160 °C.
`CC1(NC(=O)C(F)(F)F)CN(c2c(F)cc3c(=O)c(C(=O)O)cn(CCF)c3c2F)C1` gave a melting point of 205 to 215 °C.
`NCCCc1cn(S(=O)(=O)c2c(Cl)nc3sccn23)c2ccc(F)cc12` gave a melting point of 139 to 141 °C.
In the case of `CC(C)NC(=O)N1C2=NC(C)(C)N(C(C)C)C(=O)N2c2ccccc21`, the melting point is reported as 80 to 89 °C.
With `COc1ncc(-c2ccncc2)cc1Br` the melting point was 136 to 138 °C.
Work on `CSC(C(=O)c1nsc(NC=O)n1)S(C)=O` (stereo not given) yielded a melting point of 130 to 132 °C.
Work on `Cc1nnnn1-c1ccccc1C(=O)O` yielded a melting point of 157 to 160 °C.
Work on `NC(=O)c1nc(-c2cnc3nc[nH]c3c2)nc2c1[nH]c(=O)n2-c1ccccc1C(F)(F)F` yielded a melting point of 320 °C.
In the case of `Nc1cccc(COc2cccc3cccnc23)c1`, the melting point is reported as 146 to 147 °C.
Work on `COc1ccc(C2CCN(C(=O)C(N)=O)CC2)cc1OC1CCCC1` yielded a melting point of 66 to 66.5 °C.
`CN(C(=O)c1ccccn1)c1cccc(F)c1` gave a melting point of 75 to 78 °C.
`Fc1cc(F)c(-c2c(Cl)nc3ncnn3c2Cl)c(F)c1` gave a melting point of 125 to 126 °C.
Work on `CCOC(=O)c1[nH]c(C)c(C)c1OCCCCCl` yielded a melting point of 58 to 60 °C.
`O=c1[nH]c2cc(Br)cc3c2n(c1=O)CC3` gave a melting point of over 300 °C.
Work on `O=S1(=O)Cc2ccc(F)cc2C(c2ccc(F)cc2)=NN1` yielded a melting point of 196 to 200 °C.
Molecule `Brc1cc2c(cc1Br)Sc1ccccc1S2` has a melting point of 160 to 161 °C.
With `CC(C)(C)CC(C)(C)c1cc(N=Nc2ccc(C(F)(F)F)cc2[N+](=O)[O-])c(O)c(C(C)(C)c2ccccc2)c1` the melting point was 101 to 105 °C.
Work on `Nc1ccc(Nc2ccccc2[N+](=O)[O-])cc1` yielded a melting point of 110 to 112 °C.
`O=C(CCC(=O)Oc1ccc(C(=O)OCc2ccccc2)cc1)Oc1ccc(C(=O)OCc2ccccc2)cc1` showed a melting point of 106 to 107 °C.
`Cc1cccnc1C(=O)c1[nH]c2cc(Cl)ccc2c1NC(=O)CC(C)C` gave a melting point of 142 to 144 °C.
In the case of `CC(C)(C)c1cc(C(=O)c2ccsc2)cc2c1OCC2(C)C`, the melting point is reported as 89 to 90 °C.
In the case of `COC(=O)CCCc1cc2nc(C)ccc2n1S(=O)(=O)c1ccccc1`, the melting point is reported as 91 to 94 °C.
In the case of `COP(=O)(O)Cc1ccc(O)cc1`, the melting point is reported as 89 to 91 °C.
In the case of `O=C(O)c1ccc(NCc2sc(Cl)cc2Cl)cc1`, the melting point is reported as 169 to 170 °C.
`COc1cc2c(cc1OC)N(C(=O)c1ccc(-c3ccccc3C(F)(F)F)c(C)c1)Cc1ccc(C(=O)N(CCO)CCO)n1C2` showed a melting point of 130 to 132 °C.
`CS(=O)(=O)c1ccc(C(CC2CCCC2)C(=O)Nc2ccncn2)cc1Br` (stereo not given) showed a melting point of 75 to 80 °C.
With `CN(C)S(=O)(=O)N1CCN(S(=O)(=O)c2ccc(-c3ccc(CC#N)cc3)s2)[C@@H](C(=O)NO)C1` the melting point was 170 to 172 °C.
Molecule `CCCC1=C(C(=O)OCC)C(c2ccccc2Cl)c2cn(C(=O)Nc3ccccc3)nc2N1` (stereo not given) has a melting point of 145 to 147 °C.
In the case of `Cc1cc(C=CC#N)cc(C(=O)c2c(C(C)C)c(=O)[nH]c(=O)n2CC2CC2)c1`, the melting point is reported as 225 to 226 °C.
In the case of `COC(COC(C)=O)C1=CCC2C3CCC4=CC(=O)CCC4(C)C3CCC12C` (stereo not given), the melting point is reported as 115 to 157 °C.
In the case of `CCc1ccc2oc(C(=O)Nc3ccc(-c4ccc(S(=O)(=O)NC(C(=O)OC)C(C)C)cc4)cc3)c(C)c2c1OC` (stereo not given), the melting point is reported as 170 to 172 °C.
`COc1ccc(C(O)c2ccccn2)c(Cl)c1Cl` (stereo not given) gave a melting point of 174 to 176 °C.
`CC1CCN(c2ccc([N+](=O)[O-])cc2C(=O)c2ccccc2)CC1` gave a melting point of 81 °C.
In the case of `CC(C)(C)c1cc(C(=O)Cl)cc(C(C)(C)C)c1O`, the melting point is reported as 90 to 93 °C.
Work on `CNC(=S)C1(c2cccc(C)n2)CCCCS1=O` (stereo not given) yielded a melting point of 234 °C.
`CCN(C=CC(=O)c1cccnc1)CC` gave a melting point of 193 to 195 °C.
With `CCC(=O)c1ccc2cc(O)ccc2c1` the melting point was 158 to 159 °C.
In the case of `Cc1oc(-c2ccccc2)nc1COc1ccc(COc2nn(Cc3ccc(OCc4nc(-c5ccccc5)oc4C)cc3)cc2C=O)cc1`, the melting point is reported as 155 to 156 °C.
Work on `CS(=O)(=O)c1ccc(-c2cc(CO)cn2-c2ccc(F)cc2)cc1` yielded a melting point of 88 to 90 °C.
With `COc1ccc(NC(=O)N(Cc2ccccc2)Cc2ccccn2)c(NC(=O)c2cc(C(C)(C)C)c(O)c(C(C)(C)C)c2)c1` the melting point was 165 to 166 °C.
In the case of `CCCNC(=O)c1nc(C)ccc1C(=O)Nc1c(C#N)ccc(Cl)c1C`, the melting point is reported as 175 to 176 °C.
With `O=C(Nc1ccc([N+](=O)[O-])cc1)c1ccccc1Br` the melting point was 200 to 202 °C.
With `Cc1ccc(Sc2c(Cl)c(Cl)c(C(O)=NCCO)c(C(=O)O)c2Cl)cc1` the melting point was 205 to 209 °C.
With `CCN1CCN(Cc2nc3sc(Br)cc3c(=O)n2-c2ccccc2Cl)CC1` the melting point was 155 to 158 °C.
In the case of `CCCS(=O)(=O)c1nc[nH]n1`, the melting point is reported as 116 to 117 °C.
In the case of `O=C(Nc1cccc2c1CC(O)CC2)c1ccc(-c2ccc(F)c(F)c2)cc1` (stereo not given), the melting point is reported as 210 to 213 °C.
For `O=C(NCCCO)OCc1ccccc1`, the melting point was 47 to 49 °C.
`CC(C)C(C(=O)NC1CCCCC1)N1CC(=O)NCC(=O)NCC(=O)NCC(=O)NCC(=O)NCC1=O` (stereo not given) gave a melting point of 275 °C.
Work on `Cc1oc(-c2cccnc2)nc1CCl` yielded a melting point of 87 to 88 °C.
`COC(=O)c1ccccc1S(=O)(=O)NC(=O)n1nc(C)n(C2CCCC2)c1=O` showed a melting point of 146 °C.
`C#CCn1cc(C(=O)OCC)c(C(F)(F)F)c1` gave a melting point of 58 °C.
Molecule `COc1ccc(-c2csc(Nc3ccc4ccccc4n3)n2)cc1OC` has a melting point of 257 to 259 °C.
In the case of `CSC(=NCCSCc1cc2ccc(CN(C)C)cc2o1)NC#N`, the melting point is reported as 98 to 100 °C.
`O=C1[C@H](CC[C@H](O)c2ccc(F)cc2)[C@@H](c2ccc(Br)cc2OCc2ccccc2)N1c1ccccc1` gave a melting point of 114 °C.
Molecule `CCC(NC(C)=O)C(=O)O` (stereo not given) has a melting point of 128 to 130 °C.
Molecule `CC(=O)NCC1CN(c2ccc(N3CCN(c4nc5ccccc5s4)CC3)c(F)c2)C(=O)O1` (stereo not given) has a melting point of 239 to 240 °C.
With `CC(c1c[nH]cn1)c1cccc(CO)c1O` (stereo not given) the melting point was 135 to 136 °C.
`CCOC(=O)C1=C(C)NC(c2sc(C)nc2C)=NC1c1ccc(F)cc1Cl` (stereo not given) gave a melting point of 117 to 119 °C.
Molecule `COc1ccc(CN2C(=O)[C@H]([C@@H](C)O)[C@H]2[C@@H]2COC(C)(C)O2)c(OC)c1` has a melting point of 145 to 146 °C.
In the case of `COc1cc(O)c2c(=O)[nH]c(-c3cc(C)c(O)c(C)c3)nc2c1`, the melting point is reported as 291 to 293 °C.
Molecule `CC(C)c1ccc(C#CC(C)N(O)C(N)=O)cc1` (stereo not given) has a melting point of 154 to 156 °C.
With `CC(=O)c1ccc(C2COc3c(C)c(C)c(NC(=O)CC(C)(C)C)c(C)c32)cc1` (stereo not given) the melting point was 181 to 182 °C.
Molecule `O=C1CN2C(=O)N(c3cc(Cl)nc(Cl)c3)C(=O)[C@@]2(Cc2ccc(OC(F)(F)F)cc2)C1` has a melting point of 166 °C.
In the case of `N#Cc1cnc2cnc(F)cc2c1Nc1cccc(Br)c1`, the melting point is reported as 185 to 195 °C.
`COC(=O)C(C)(C)c1ccc(OCCN)cc1` showed a melting point of 108 to 112 °C.
`CCCN(CCC)Cc1nc(-c2ncn3c2[C@@H]2CCCN2C(=O)c2cc(F)ccc2-3)no1` gave a melting point of 222 to 225 °C.
In the case of `COC(=O)COc1cccc2c1CCC(CC(=O)CBr)C2` (stereo not given), the melting point is reported as 77 to 78 °C.
In the case of `CC(C)n1nnc(-c2cnc3ccccn3c2=O)n1`, the melting point is reported as 146 to 148 °C.
`Cc1ccc(C)c(OCc2ccccc2C(=NOC(F)F)C(N)=O)c1` gave a melting point of 153 to 156 °C.
In the case of `Cc1ccnc(CN(C(=O)C(C)Cl)c2ccccc2)n1` (stereo not given), the melting point is reported as 110 °C.
For `O=C(Nc1ccc(C(=O)Nc2nnc(-c3cc(Cl)cc(Cl)c3O)s2)cc1)c1ccccc1`, the melting point was 301 °C.
Molecule `CC(C)n1nc(-c2c(-c3ccccc3)nn3ccc(N4CCN(S(C)(=O)=O)CC4)cc23)ccc1=O` has a melting point of 219 to 220 °C.
Work on `NS(=O)(=O)c1cc(C(=O)O)cc(NCc2ccccc2)c1Sc1ccccc1` yielded a melting point of 224 to 225 °C.
In the case of `CC(C)n1nc(-c2ccc(N)nc2-c2ccccc2)ccc1=O`, the melting point is reported as 167 to 171 °C.
Molecule `C=CC(C)=CC=CC(C)=CC(=O)OCC` has a melting point of 52 to 53 °C.
`CCOC(=O)C1=C(C)Nc2nc(N3CCOCC3)nc(N3CCOCC3)c2C1c1ccccc1C#N` (stereo not given) showed a melting point of 248 °C.
`COc1ccc(-c2cc(=Nc3c(C)cc(C)cc3C)n(C)c(NN)n2)cc1OC` gave a melting point of over 300 °C.
Molecule `Cc1nc(CO)n(C)c1[N+](=O)[O-]` has a melting point of 113 to 114 °C.
`COCCCNc1ccc(S(N)(=O)=O)cn1` showed a melting point of 129 to 132 °C.
